Test results from patent publication US12448389B2, “BRM targeting compounds and associated methods of use” (Prelude Therapeutics Incorporated, priority 2020, dated 2025).

How the values were obtained:
SMARCA2-HiBiT = molecular target: T1, SMARCA2-HiBiT (Homo sapiens, UniProt P51531); experiment: SMARCA2 HiBiT degradation assay in HeLa cells; assay type: cell-based; conditions: 18 hours incubation; for DC50: read-out: HeLa_HiBit-SM2 DC50; for Dmax: HeLa, read-out: HeLa-HiBit-SM2 Dmax (%)
T1 construct: SMARCA2-HiBiT knock-in Hela monoclonal cell (CS302366); host or cells: HeLa monoclonal knock-in line (CRISPR HiBiT knock-in at the endogenous locus, heterozygous)
T1 sequence (P51531 whole entry): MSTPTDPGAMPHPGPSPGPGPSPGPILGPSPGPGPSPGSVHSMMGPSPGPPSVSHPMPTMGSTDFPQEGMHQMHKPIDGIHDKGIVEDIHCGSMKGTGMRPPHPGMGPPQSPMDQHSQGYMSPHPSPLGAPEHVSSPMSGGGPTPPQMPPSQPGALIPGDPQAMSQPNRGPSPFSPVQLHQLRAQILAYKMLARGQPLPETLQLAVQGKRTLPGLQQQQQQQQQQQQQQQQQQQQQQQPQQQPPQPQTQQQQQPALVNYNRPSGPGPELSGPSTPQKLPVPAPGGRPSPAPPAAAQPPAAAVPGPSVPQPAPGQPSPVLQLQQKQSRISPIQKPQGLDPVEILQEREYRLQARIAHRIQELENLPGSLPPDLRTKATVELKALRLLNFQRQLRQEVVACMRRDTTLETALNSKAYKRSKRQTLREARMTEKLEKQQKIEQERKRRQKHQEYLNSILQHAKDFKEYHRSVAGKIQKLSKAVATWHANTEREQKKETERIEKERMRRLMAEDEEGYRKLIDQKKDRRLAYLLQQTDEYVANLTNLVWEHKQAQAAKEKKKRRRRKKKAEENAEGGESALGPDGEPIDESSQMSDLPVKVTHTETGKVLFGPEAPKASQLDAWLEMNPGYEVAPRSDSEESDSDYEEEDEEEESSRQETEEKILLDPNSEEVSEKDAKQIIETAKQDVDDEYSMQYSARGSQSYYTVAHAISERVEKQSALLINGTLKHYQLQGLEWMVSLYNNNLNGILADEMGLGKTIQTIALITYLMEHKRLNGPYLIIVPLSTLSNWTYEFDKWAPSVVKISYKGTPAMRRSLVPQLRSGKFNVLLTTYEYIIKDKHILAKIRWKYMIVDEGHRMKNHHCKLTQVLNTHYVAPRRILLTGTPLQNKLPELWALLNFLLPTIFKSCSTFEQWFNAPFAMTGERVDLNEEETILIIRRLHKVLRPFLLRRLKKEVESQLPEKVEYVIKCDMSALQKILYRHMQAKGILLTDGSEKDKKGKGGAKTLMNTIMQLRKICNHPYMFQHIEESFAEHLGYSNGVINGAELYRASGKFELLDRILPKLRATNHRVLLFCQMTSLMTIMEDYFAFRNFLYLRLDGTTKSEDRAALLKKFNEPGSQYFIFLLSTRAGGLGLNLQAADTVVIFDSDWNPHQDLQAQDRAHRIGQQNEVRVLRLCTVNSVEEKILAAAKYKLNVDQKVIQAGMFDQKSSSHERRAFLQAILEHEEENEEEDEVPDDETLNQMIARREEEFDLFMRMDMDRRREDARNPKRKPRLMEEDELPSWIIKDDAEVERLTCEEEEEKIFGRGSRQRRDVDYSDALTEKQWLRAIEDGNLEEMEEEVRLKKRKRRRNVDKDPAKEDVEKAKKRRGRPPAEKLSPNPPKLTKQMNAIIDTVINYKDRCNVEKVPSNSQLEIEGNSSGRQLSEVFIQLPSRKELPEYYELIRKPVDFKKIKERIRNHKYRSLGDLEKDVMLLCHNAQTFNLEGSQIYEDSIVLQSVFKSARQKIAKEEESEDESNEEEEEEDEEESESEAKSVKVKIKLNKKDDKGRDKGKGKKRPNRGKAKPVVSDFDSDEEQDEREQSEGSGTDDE
Description: (§1) HiBiT peptide knock-in of SMARCA2 in LgBiT expressing HEK293T cells was performed by CRISPR-mediated tagging system as described Promega. The homozygous HiBiT knock-in on c-terminus SMARCA2 was confirmed by sanger sequence. SMARCA2-HiBiT knock-in Hela monoclonal cell (CS302366) and SMARCA4-HiBiT knock-in Hela monoclonal cell (CS3023226) were purchased from Promega. The heterozygous HiBiT-knock-in was confirmed by sanger sequence in both SMARCA2-HiBiT and SMARCA4-HiBiT monoclonal cells.
(§2) SMARCA2 HiBiT and SMARCA4 HiBiT Degradation Assay in HeLa Cells
(§3) Dispense 10 ul aliquot of prepared Hela-SMARCA2-HiBiT or Hela-SMARCA4-HiBiT cells (1:1 ratio of cells:Trypan Blue (#1450013, Bio-Rad)) onto cell counting slide (#145-0011, Bio-Rad) and obtain cell density and cell viability using cell counter (TC20, Bio-Rad). Remove appropriate volume of resuspended cells from culture flask to accommodate 2500 cells/well @20 μL/well. Transfer Hela-HiBiT cells to 50 mL conical (#430290, Corning). Spin down at 1000 rpm for 5 min using tabletop centrifuge (SPINCHRON 15, Beckman). Discard supernatant and resuspend cell pellet in modified EMEM (#30-2003, ATCC) cell culture media containing 10% FBS (F2422-500ML, Sigma), and 1×Penicillin/Streptomycin (200 g/L) (30-002-CI, Corning) to a cell density of 125,000 cells/mL. Dispense 20 μL of resuspended Hela-HiBit cells per well in 384-well TC treated plate (#12-565-343, Thermo Scientific) using standard cassette (#50950372, Thermo Scientific) on Multidrop Combi (#5840310, Thermo Scientific) inside laminar flow cabinet. Dispense test compounds onto plates using digital liquid dispenser (D300E, Tecan). Incubate plates in humidified tissue culture incubator @37° C. for 18 hours. Add 20 μL of prepared Nano-Glo® HiBiT Lytic detection buffer (N3050, Promega) to each well of 384-well plate using small tube cassette (#24073295, Thermo Scientific) on Multidrop Combi, incubate @RT for 30-60 min. Read plates on microplate reader (Envision 2105, PerkinElmer) using 384 well Ultra-Sensitive luminescence mode. Raw data files and compound information reports are swept into centralized data lake and deconvoluted using automated scripts designed by TetraScience, Inc. Data analysis, curve-fitting and reporting done in Dotmatics Informatics Suite using Screening Ultra module.

SMARCA4-HiBiT = molecular target: T2, SMARCA4-HiBiT (Homo sapiens, UniProt P51532); experiment: SMARCA4 HiBiT degradation assay in HeLa cells; assay type: cell-based; conditions: 18 hours incubation; for DC50: read-out: HeLa-HiBit-SM4 DC50; for Dmax: HeLa, read-out: HeLa-HiBit-SM4 Dmax (%)
T2 construct: SMARCA4-HiBiT knock-in Hela monoclonal cell (CS3023226); host or cells: HeLa monoclonal knock-in line (CRISPR HiBiT knock-in at the endogenous locus, heterozygous)
T2 sequence (P51532 whole entry): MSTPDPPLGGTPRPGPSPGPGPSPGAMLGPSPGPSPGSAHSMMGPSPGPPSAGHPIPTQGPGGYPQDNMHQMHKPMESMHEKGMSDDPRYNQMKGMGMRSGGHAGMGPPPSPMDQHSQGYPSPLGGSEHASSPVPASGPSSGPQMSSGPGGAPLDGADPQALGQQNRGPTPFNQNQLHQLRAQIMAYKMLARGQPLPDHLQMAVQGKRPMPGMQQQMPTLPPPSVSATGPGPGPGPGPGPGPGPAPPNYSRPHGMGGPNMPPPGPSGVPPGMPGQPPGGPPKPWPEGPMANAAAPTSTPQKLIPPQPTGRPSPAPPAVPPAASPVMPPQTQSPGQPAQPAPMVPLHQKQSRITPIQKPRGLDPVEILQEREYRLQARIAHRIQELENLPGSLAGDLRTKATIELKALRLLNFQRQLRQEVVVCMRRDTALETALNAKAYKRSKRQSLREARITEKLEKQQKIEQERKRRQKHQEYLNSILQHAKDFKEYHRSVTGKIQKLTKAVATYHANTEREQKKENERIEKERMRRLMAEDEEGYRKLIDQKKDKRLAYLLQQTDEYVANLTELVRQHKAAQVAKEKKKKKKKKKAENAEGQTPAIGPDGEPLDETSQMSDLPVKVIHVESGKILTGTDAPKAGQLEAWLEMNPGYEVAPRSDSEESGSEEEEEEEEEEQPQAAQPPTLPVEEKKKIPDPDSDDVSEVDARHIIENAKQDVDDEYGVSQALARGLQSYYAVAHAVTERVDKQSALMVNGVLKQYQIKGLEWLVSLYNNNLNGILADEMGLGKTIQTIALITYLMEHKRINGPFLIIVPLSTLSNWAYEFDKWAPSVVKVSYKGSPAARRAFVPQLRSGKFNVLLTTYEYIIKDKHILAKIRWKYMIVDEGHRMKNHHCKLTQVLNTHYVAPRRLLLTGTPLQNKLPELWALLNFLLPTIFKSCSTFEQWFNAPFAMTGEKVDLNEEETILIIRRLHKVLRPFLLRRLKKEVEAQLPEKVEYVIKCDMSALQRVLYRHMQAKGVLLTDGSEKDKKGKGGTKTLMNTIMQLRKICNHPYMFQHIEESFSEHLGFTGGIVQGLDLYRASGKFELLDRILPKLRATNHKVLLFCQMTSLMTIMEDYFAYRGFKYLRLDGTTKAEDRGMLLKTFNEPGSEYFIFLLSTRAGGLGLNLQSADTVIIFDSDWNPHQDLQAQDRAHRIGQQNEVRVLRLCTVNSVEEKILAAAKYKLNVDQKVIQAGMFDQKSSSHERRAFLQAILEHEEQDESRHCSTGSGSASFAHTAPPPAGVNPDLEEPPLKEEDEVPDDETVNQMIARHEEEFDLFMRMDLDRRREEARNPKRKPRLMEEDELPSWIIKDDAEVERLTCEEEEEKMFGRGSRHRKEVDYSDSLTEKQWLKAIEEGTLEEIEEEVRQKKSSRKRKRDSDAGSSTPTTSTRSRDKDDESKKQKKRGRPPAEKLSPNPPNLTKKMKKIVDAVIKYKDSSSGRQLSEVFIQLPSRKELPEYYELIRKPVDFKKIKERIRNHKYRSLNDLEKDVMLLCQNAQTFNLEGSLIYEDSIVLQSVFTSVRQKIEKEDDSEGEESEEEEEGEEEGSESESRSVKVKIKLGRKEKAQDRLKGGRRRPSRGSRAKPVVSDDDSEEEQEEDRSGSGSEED
Description: as §1, §2, §3

Row | SMILES | DC50 (SMARCA2-HiBiT) [nM] | Dmax (SMARCA2-HiBiT) [%] | DC50 (SMARCA4-HiBiT) [nM] | Dmax (SMARCA4-HiBiT) [%] | HeLa-HiBit-SM2 Dmax (%) (SMARCA2-HiBiT) | HeLa-HiBit-SM4 Dmax (%) (SMARCA4-HiBiT)
1 | O=C1CCC(N2Cc3cc(OCCN4CCC(N5CCN6c7cc(-c8ccccc8O)nnc7NC[C@H]6C5)C4)ccc3C2=O)C(=O)N1 (stereo partly drawn) [Example 256, 3-(5-(2-(3-((S)-2-(2-hydroxyphenyl)-5,6,6a,7,9,10-hexahydro-8H-pyrazino[1′,2′:4,5]pyrazino[2,3-c]pyridazin-8-yl)pyrrolidin-1-yl)ethoxy)-1-oxoisoindolin-2-yl)piperidine-2,6-dione] | 10 to 100 | 50 to 75 | 10 to 100 | 50 to 75 |  | 
2 | O=C1CCC(N2C(=O)c3ccc(N4CCC(CN5CCN6c7cc(-c8ccccc8O)nnc7NC[C@H]6C5)CC4)cc3C2=O)C(=O)N1 (stereo partly drawn) [Example 157, 2-(2,6-dioxopiperidin-3-yl)-5-(4-(((S)-2-(2-hydroxyphenyl)-5,6,6a,7,9,10-hexahydro-8H-pyrazino[1′,2′:4,5]pyrazino[2,3-c]pyridazin-8-yl)methyl)piperidin-1-yl)isoindoline-1,3-dione] | < 10 | 75 to 85 | 10 to 100 | 50 to 75 |  | 
3 | C[C@H]1CN2c3cc(-c4ccccc4O)nnc3NC[C@H]2CN1C[C@H]1[C@@H]2CN(C[C@H]3CCN(c4ccc5c(c4)C(=O)N(C4CCC(=O)NC4=O)C5)C[C@@H]3F)C[C@@H]21 (stereo partly drawn) [Example 204, 3-[5-[(3R,4R)-3-fluoro-4-[[(1S,5R)-6-[[(10S,13S)-4-(2-hydroxyphenyl)-13-methyl-1,5,6,8,12-pentazatricyclo[8.4.0.02,7]tetradeca-2,4,6-trien-12-yl]methyl]-3-azabicyclo[3.1.0]hexan-3-yl]methyl]piperidin-1-yl]-3-oxo-1H-isoindol-2-yl]piperidine-2,6-dione] | < 10 | 75 to 85 | 10 to 100 | 75 to 85 |  | 
4 | O=C1CCC(N2C(=O)c3ccc(C4CCN(C5CCN(CCN6CCN7c8cc(-c9ccccc9O)nnc8NC[C@H]7C6)C5)CC4)cc3C2=O)C(=O)N1 (stereo partly drawn) [Example 243, 2-(2,6-dioxopiperidin-3-yl)-5-(1-(1-(2-((S)-2-(2-hydroxyphenyl)-5,6,6a,7,9,10-hexahydro-8H-pyrazino[1′,2′:4,5]pyrazino[2,3-c]pyridazin-8-yl)ethyl)pyrrolidin-3-yl)piperidin-4-yl)isoindoline-1,3-dione] | < 10 | > 85 | < 10 | > 85 |  | 
5 | CC1CC(CN2CCC(CN3CCN4c5cc(-c6ccccc6O)nnc5NC[C@H]4C3)CC2)CCN1c1ccc2c(c1)C(=O)N(C1CCC(=O)NC1=O)C2=O (stereo partly drawn) [Example 148, 2-(2,6-dioxopiperidin-3-yl)-5-(4-((4-(((S)-2-(2-hydroxyphenyl)-5,6,6a,7,9,10-hexahydro-8H-pyrazino[1′,2′:4,5]pyrazino[2,3-c]pyridazin-8-yl)methyl)piperidin-1-yl)methyl)-2-methylpiperidin-1-yl)isoindoline-1,3-dione] | < 10 | > 85 | < 10 | > 85 |  | 
6 | CC(C1CCN(CC2CCN(c3ccc4c(c3)C(=O)N(C3CCC(=O)NC3=O)C4=O)CC2)CC1)N1CCN2c3cc(-c4ccccc4O)nnc3NC[C@H]2C1 (stereo partly drawn) [Example 32, 2-(2,6-dioxopiperidin-3-yl)-5-(4-((4-(1-((S)-2-(2-hydroxyphenyl)-5,6,6a,7,9,10-hexahydro-8H-pyrazino[1′,2′:4,5]pyrazino[2,3-c]pyridazin-8-yl)ethyl)piperidin-1-yl)methyl)piperidin-1-yl)isoindoline-1,3-dione] | < 10 | > 85 | < 10 | > 85 |  | 
7 | O=C1CCC(N2C(=O)c3ccc(N4CCC(CN5CCC(F)(CN6CCN7c8cc(-c9ccccc9O)nnc8NC[C@H]7C6)CC5)CC4)cc3C2=O)C(=O)N1 (stereo partly drawn) [Example 175, 2-(2,6-dioxopiperidin-3-yl)-5-[4-[[4-fluoro-4-[[(10S)-4-(2-hydroxyphenyl)-1,5,6,8,12-pentazatricyclo[8.4.0.02,7]tetradeca-2,4,6-trien-12-yl]methyl]piperidin-1-yl]methyl]piperidin-1-yl]isoindole-1,3-dione] | < 10 | > 85 | < 10 | > 85 |  | 
8 | O=C1CCC(N2C(=O)c3ccc(N4CCCC(CN5CCO[C@@H](CN6CCN7c8cc(-c9ccccc9O)nnc8NC[C@H]7C6)C5)C4)cc3C2=O)C(=O)N1 (stereo partly drawn) [Example 79, 2-(2,6-dioxopiperidin-3-yl)-5-(3-(((S)-2-(((S)-2-(2-hydroxyphenyl)-5,6,6a,7,9,10-hexahydro-8H-pyrazino[1′,2′:4,5]pyrazino[2,3-c]pyridazin-8-yl)methyl)morpholino)methyl)piperidin-1-yl)isoindoline-1,3-dione] | < 10 | 75 to 85 | < 10 | 75 to 85 |  | 

Second part, the molecule after the results:

Row | DC50 (SMARCA2-HiBiT) [nM] | Dmax (SMARCA2-HiBiT) [%] | DC50 (SMARCA4-HiBiT) [nM] | Dmax (SMARCA4-HiBiT) [%] | HeLa-HiBit-SM2 Dmax (%) (SMARCA2-HiBiT) | HeLa-HiBit-SM4 Dmax (%) (SMARCA4-HiBiT) | SMILES
9 | < 10 | 75 to 85 | < 10 | > 85 |  |  | O=C1CCC(N2C(=O)c3ccc(N4C[C@@H]5CN(C6CCC(C(=O)N7CCN8c9cc(-c%10ccccc%10O)nnc9NC[C@H]8C7)CC6)C[C@H]5C4)cc3C2=O)C(=O)N1 (stereo partly drawn) [Example 98, 2-(2,6-dioxopiperidin-3-yl)-5-((3aS,6aS)-5-(4-((S)-2-(2-hydroxyphenyl)-6,6a,7,8,9,10-hexahydro-5H-pyrazino[1′,2′:4,5]pyrazino[2,3-c]pyridazine-8-carbonyl)cyclohexyl)hexahydropyrrolo[3,4-c]pyrrol-2(1H)-yl) isoindoline-1,3-dione]
10 | < 10 |  | < 10 |  | A (A=Dmax>85%) | B (B=75%<Dmax<=85%) | O=C1CCC(N2C(=O)c3ccc(N4CC[C@H](CN5CCC(C(=O)N6CCN7c8cc(-c9cc(F)ccc9O)nnc8NC[C@H]7C6)CC5)[C@@H](F)C4)cc3C2=O)C(=O)N1 (stereo partly drawn) [Example 280, 2-(2,6-dioxopiperidin-3-yl)-5-((3R,4R)-3-fluoro-4-((4-((S)-2-(5-fluoro-2-hydroxyphenyl)-6,6a,7,8,9,10-hexahydro-5H-pyrazino[1′,2′:4,5]pyrazino[2,3-c]pyridazine-8-carbonyl)piperidin-1-yl)methyl)piperidin-1-yl)isoindoline-1,3-dione]
11 | < 10 | > 85 | < 10 |  |  | C (C=50%<Dmax<=75%) | O=C1CCC(N2C(=O)c3ccc(N4CC[C@H](CN5CCC(C(=O)N6CCN7c8cc(-c9cc(F)ccc9O)nnc8NC[C@H]7C6)CC5)[C@@H](F)C4)cc3C2=O)C(=O)N1 (stereo partly drawn) [Example 279, 2-(2,6-dioxopiperidin-3-yl)-5-((3R,4R)-3-fluoro-4-((4-((S)-2-(5-fluoro-2-hydroxyphenyl)-6,6a,7,8,9,10-hexahydro-5H-pyrazino[1′,2′:4,5]pyrazino[2,3-c]pyridazine-8-carbonyl)piperidin-1-yl)methyl)piperidin-1-yl)isoindoline-1,3-dione]
12 | < 10 | > 85 | < 10 | > 85 |  |  | O=C1CCC(N2C(=O)c3ccc(N4CC(CN5CCC(CN6CCN7c8cc(-c9ccccc9O)nnc8NC[C@H]7C6)CC5)C4)cc3C2=O)C(=O)N1 (stereo partly drawn) [Example 247, 2-(2,6-dioxopiperidin-3-yl)-5-(3-((4-(((S)-2-(2-hydroxyphenyl)-5,6,6a,7,9,10-hexahydro-8H-pyrazino[1′,2′:4,5]pyrazino[2,3-c]pyridazin-8-yl)methyl)piperidin-1-yl)methyl)azetidin-1-yl)isoindoline-1,3-dione]
13 | < 10 | > 85 | < 10 | 75 to 85 |  |  | CC1CN(CC2CCN(c3ccc4c(c3)C(=O)N(C3CCC(=O)NC3=O)C4=O)CC2)CC(C)N1C(=O)N1CCN2c3cc(-c4ccccc4O)nnc3NC[C@H]2C1 (stereo partly drawn) [Example 273, 2-(2,6-dioxopiperidin-3-yl)-5-(4-((4-((S)-2-(2-hydroxyphenyl)-6,6a,7,8,9,10-hexahydro-5H-pyrazino[1′,2′:4,5]pyrazino[2,3-c]pyridazine-8-carbonyl)-3,5-dimethylpiperazin-1-yl)methyl)piperidin-1-yl)isoindoline-1,3-dione]
